Laboratory results reported in patent US8389509B2, “Substituted pyrazole compounds” (Bristol-Myers Squibb Company, priority 2009, dated 2013).

Legend:
[1] = system: Lewis rats; experiment: Rat Adjuvant Induced Arthritis Assay (AA); assay type: in vivo; conditions: for Paw Swelling (mL) on Day 20, Mean: vehicle mean 2.11
Description: Rat Adjuvant Induced Arthritis Assay (AA)
Male Lewis rats (150-175 g; Harlan, n=8 treatment group) were immunized at the base of the tail with 100 μl of 10 mg/ml freshly ground Mycobacterium butyricum (Difco Laboratories) in incomplete Freund's adjuvant (sigma). Animals were dosed once daily with the test article (as a solution or suspension in the vehicle) or vehicle alone (polyethylene glycol 300, “PEG300”) starting from the day of immunization. The volumes of their hind paws were measured in a water displacement plethysmometer (Ugo Basile, Italy). The baseline paw measurements were taken before onset of the disease (between day 7 to day 10). The paw measurements were then taken three times a week until the end of the study on day 20 to 21. All procedures involving animals were reviewed and approved by the Institutional Animal Care Use Committee.
Compounds of the present invention were tested in the Rat Adjuvant Induced Arthritis assay described hereinabove and the results are shown in Table F and Table G.

[2] = system: C57BL/6 mice; experiment: Mouse Experimental Autoimmune Encephalomyelitis Assay (EAE); assay type: in vivo; conditions: for Clinical Score on Day 24, Mean: vehicle mean 2.63
Description: Mouse Experimental Autoimmune Encephalomyelitis Assay (EAE)
Mice (C57BL/6 female, 6-8 weeks of age, Charles River, n=10-12 treatment group) were immunized subcutaneously with 150 μg MOG35-55 emulsified 1:1 with […] Freund's adjuvant (sigma) supplemented with 150 μg Mycobacterium tuberculosis H37RA (Difco Laboratories). 400 ng of pertussis toxin (CalBiochem) was injected intraperitoneally on the day of immunization and two days later. Animals were dosed once daily with the test article (as a solution or suspension in the vehicle) or vehicle alone (polyethylene glycol 300, “PEG300”) starting from 1 day after immunization. Clinical scoring and body weight were taken 3 times per week until the end of the study on day 24. Clinical scoring system: 0.5: partial tail weakness; 1: limp tail or waddling gait with tail tonicity; 1.5: waddling gait with partial tail weakness; 2: waddling gait with limp tail (ataxia); 2.5: ataxia with partial limb paralysis; 3: full paralysis of one limb; 3.5: full paralysis of one limbs with partial paralysis of a second limb; 4: full paralysis of two limbs; 4.5: moribund; 5: death. A compound of the present invention was tested in the Mouse Experimental Autoimmune Encephalomyelitis assay described hereinabove and the results are shown in Table H.

[3] = system: circulating lymphocytes; experiment: Blood Lymphocyte Reduction Assay (BLR) in rats; assay type: in vivo, Lewis rats; conditions: oral
Description: Blood Lymphocyte Reduction Assay (BLR) in Rodents
Lewis rats or BALB/c mice were dosed orally with test article (as a solution or suspension in the vehicle) or vehicle alone (polyethylene glycol 300, “PEG300”). Blood was drawn at 4 hr and 24 h by retro-orbital bleeding. Blood lymphocyte counts were determined on an ADVIA 120 Hematology Analyzer (Siemens Healthcare Diagnostics). The results were measured as a reduction in the percentage of circulating lymphocytes as compared to the vehicle treated group at the 4 hr and 24 hr measurement. The results represent the average results of all animals within each treatment group (n=3-4).
Compounds of the present invention were tested in the Blood Lymphocyte Reduction assay (BLR) described hereinabove and the results are shown in Table D for rats and Table E for mice.

## O=C(O)C1CN(Cc2ccc(-c3noc(-c4cnn(-c5ccccn5)c4C(F)(F)F)n3)cc2)C1 [Example 1, 1-(4-(5-(1-(Pyridin-2-yl)-5-(trifluoromethyl)-1H-pyrazol-4-yl)-1,2,4-oxadiazol-3-yl)benzyl)azetidine-3-carboxylic acid]
[1]; 1.0 mg/kg once daily
  Paw Swelling (mL) on Day 20, Mean: 2.36 mL
[1]; 3.0 mg/kg once daily
  Paw Swelling (mL) on Day 20, Mean: 1.45 mL
[1]; 6.0 mg/kg once daily
  Paw Swelling (mL) on Day 20, Mean: 0.17 mL
[1]; 10.0 mg/kg once daily
  Paw Swelling (mL) on Day 20, Mean: 0.12 mL
[1]; Lewis rat, prophylactic oral dosing
  disease progression as measured by paw swelling: inhibit disease progression
[2]; 1.0 mg/kg once daily
  Clinical Score on Day 24, Mean: 0.32
[2]; 3.0 mg/kg once daily
  Clinical Score on Day 24, Mean: 0.77
[2]; 10.0 mg/kg once daily
  Clinical Score on Day 24, Mean: 0.30
[2]; C57Bl/6 mice, prophylactic oral dosing
  disease progression as determined by the clinical scores: inhibits disease progression
[3]; 0.04 mg/kg
  % reduction in lymphocytes at 4 hr.: 49%
  % reduction in lymphocytes at 24 hr.: 6%
[3]; 0.2 mg/kg
  % reduction in lymphocytes at 4 hr.: 77%
  % reduction in lymphocytes at 24 hr.: 15%
[3]; 1.0 mg/kg
  % reduction in lymphocytes at 4 hr.: 86%
  % reduction in lymphocytes at 24 hr.: 61%
[3]; 3.0 mg/kg
  % reduction in lymphocytes at 4 hr.: 81%
  % reduction in lymphocytes at 24 hr.: 75%
